Laboratory results as given in patent publication US20250221953A1 (The University of Chicago, priority 2022, published 2025).

test system: Jurkat T cells; type: cell-based, human; conditions: IL-2 production level in treated group compared to control group; 48 hours treatment, then anti-CD3/anti-CD28 12 hours

First: O=C(O)CCCC[C@@H]1SC[C@@H]2NC(=O)N[C@@H]21 [d-Biotin]
Second: C=C1CC[C@H](O)C/C1=C/C=C1\CCC[C@]2(C)[C@@H]([C@H](C)/C=C/[C@H](C)C(C)C)CC[C@@H]12 [ERGOCALCIFEROL]
The “Relative changed percentage (%)” value of the first is higher: 29.84% for the first, 16.01% for the second.

Going from `O=S(=O)([O-])[O-].[O]=[V+2]` [Vanadylsulfate] to `O=c1c(O)c(-c2ccc(O)c(O)c2)oc2cc(O)cc(O)c12` [Quercetin], the “Relative changed percentage (%)” value falls from 7.094% to −4.501%.

Compared with `CCCC/C=C\CCCCCCCC(=O)O` [Myristoleic acid], `Cl.NCCCC[C@H](N)C(=O)O` [L-Lysine hydrochloride] is higher in “Relative changed percentage (%)” value: −21.38% for the first, −1.605% for the second.

Going from ZINC SULFATE HEPTAHYDRATE to Tricalcium phosphate hydrate, the “Relative changed percentage (%)” value rises from 1.046% to 51.49%.

Compared with `O=C([O-])CC(O)(CC(=O)[O-])C(=O)[O-].[K+].[K+].[K+]` [Potassium Citrate], `Cl.N[C@@H](Cc1c[nH]cn1)C(=O)O` [L-Histidine hydrochloride] is lower in “Relative changed percentage (%)” value: 58.7511% for the first, 3.531% for the second.

Compared with `O=C[C@H](O)[C@@H](O)[C@H](O)[C@H](O)C(=O)O` [D-Glucuronic Acid], FERRITIN TYPE IV FROM HUMAN LIVER is higher in “Relative changed percentage (%)” value: −45.8% for the first, 9.075% for the second.

Compared with `CC/C=C\C/C=C\C/C=C\C/C=C\CCCCC(=O)O` [Stearidonic Acid], `COc1nc(N)nc2nc[nH]c12` [O-METHYLGUANINE] is lower in “Relative changed percentage (%)” value: 109.3% for the first, 6.274% for the second.

First: O[C@H]1[C@H](O)[C@@H](O)[C@H](O)[C@@H](O)[C@H]1O [MYO-INOSITOL]
Second: CC(=O)OCC[N+](C)(C)C.[Cl-] [ACE[…]]
The “Relative changed percentage (%)” value of the first is higher: 40.7157% for the first, −8.939% for the second.

First: O=C(O)CC(O)C(=O)O (racemic) [DL-MALIC ACID]
Second: CCCCC[C@H](O)CC(=O)CCc1ccc(O)c(OC)c1 [Compound 6-gingerol, 6-gingerol]
The “Relative changed percentage (%)” value of the first is lower: 40.01% for the first, 42.62% for the second.

Going from `NCCc1c[nH]cn1` [HISTAMINE FREE BASE CRYSTALLINE, HISTAMINE FREE BASE] to `Cn1cnc2c1c(=O)[nH]c(=O)n2C` [THEOBROMINE], the “Relative changed percentage (%)” value rises from −3.594% to 25.42%.

Compared with L-A-PHOSPHATIDYLETHANOLAMINE TYPE I, “Alpha-Tocopherol [(+/−)-A-TOCOPHEROL/Alpha-Tocopherol]” is higher in “Relative changed percentage (%)” value: 32.24% for the first, 40.65% for the second.

Going from `N[C@@H](CCC(=O)N[C@@H](CS)C(=O)NCC(=O)O)C(=O)O` [L-glutathione] to `O=C(O)CC(O)(CC(=O)O)C(=O)O` [Citric Acid], the “Relative changed percentage (%)” value falls from 13.46% to −36.8%.

First: OCC(O)CO [GLYCEROL MOLECULAR BIOLOGY REAGENT, GLYCEROL]
Second: Bromelain from pineapple stem
The “Relative changed percentage (%)” value of the first is higher: 39.3621% for the first, 16.0114% for the second.

First: N[C@@H](Cc1c[nH]c2ccccc12)C(=O)O [L-Tryptophan]
Second: CC(=O)O[C@H]1CC[C@@]2(C)C(=CC[C@H]3[C@@H]4CC[C@H](C(C)=O)[C@@]4(C)CC[C@@H]32)C1 [Pregnenolone Acetate]
The “Relative changed percentage (%)” value of the first is lower: 1.358% for the first, 82.91% for the second.

Going from `CCCCC/C=C\C/C=C\CCCCCCCC(=O)O` [linoleic acid] to `CC1=C(/C=C/C(C)=C/C=C/C(C)=C/C=C/C=C(C)/C=C/C=C(C)/C=C/C2=C(C)C(=O)[C@@H](O)CC2(C)C)C(C)(C)C[C@H](O)C1=O` [Astaxanthin], the “Relative changed percentage (%)” value rises from −9.42% to 12.26%.

Going from THYROCALCITONIN SALMON/calcitonin to `O=C(CO)[C@@H](O)[C@H](O)[C@H](O)CO` [D(−)FRUCTOSE], the “Relative changed percentage (%)” value falls from 11.37% to −25.52%.

For `O=S(=O)([O-])[O-].[Mn+2]` [Manganese sulfate], the “Relative changed percentage (%)” value was 29.55%.

same assay, conditions: IL-2 production level in treated group compared to control group; 48 hours treatment, then anti-CD3/anti-CD28 12 hours; Hydrochloride

With `Cl.N[C@H]1C(O)O[C@H](CO)[C@@H](O)[C@@H]1O` (stereo partly drawn) [D-(+)-Glucosamine Hydrochloride] the “Relative changed percentage (%)” value was −38.23%.
